Earlier results on 3 compounds are cited in patent publication US20050186294A1 (priority 1999, published 2005).

The target of one series is 5 Phosphodiesterase (Homo sapiens, UniProt O76074). Conditions: in vitro, similar Molar concentrations.
The next series relates to penile erection. Conditions: oral, men.
The conditions of series [1]: larger molecular weight molecules such as Testosterone.
[2] abbreviates: after oral arginine supplementation (6 g).

Read-outs that look alike come from different tables or passages of the source.

Take `N=C(N)NCCC[C@H](N)C(=O)O` [L-arginine]: the “detectable cGMP excretion rates in urine” value with cGMP (after infusion of 30 g and 6 g) is “rise in detectable cGMP excretion rates in urine”. Further, the “increases in detectable cGMP” value in the series on cGMP (setting [2]) is “not statistically significant”. Also, the “L-arginine level in the blood” value was 822 nM/ml (after infusion of 6 g) and 6223 nmol/mL (after infusion of 30 g). Besides, under setting [2], the blood concentration is 310 µM.

For the compound `CCCc1nn(C)c2c(=O)[nH]c(-c3cc(S(=O)(=O)N4CCN(C)CC4)ccc3OCC)nc12` [sildenafil], on 5 Phosphodiesterase, the “inhibition of 5 Phosphodiesterase activity” value is given as 85%. Further, the entries for the “effectiveness to create a penile erection” value with penile erection (after first use) and in the series on penile erection (by the eighth use) were 54% and 86%, respectively.

As for `CC1CCC(C(C)C)C(O)C1` (stereo not drawn) [Menthol], the “increase of membrane permeability” value in series [1] is listed as 2-4 times.
